The target of test [1] is T1, rLHR (Rattus norvegicus, UniProt P16235). The experiment in a line: PCRE controlled luciferase expression in HEK293T transiently transfected with rLHR. Particulars: 500 ng/ml bLH, 6 h post-induction, pLEN-rLHR + pCRE-Luc. Also noted: Full-length cDNAs encoding the LHRs of rat (r) and bovine (b) origin; expressed in transfected cells; host or cells: HEK293T, transient transfection with pLEN-rLHR. Type of test: cell-based. As to the method: HEK293T cells were transiently transfected for rLHR and PCRE controlled luciferase expression. 24 hours after transfection the cells were transferred to a 96-well plate, cultured for 12 h and induced by the addition of 500 ng/ml bLH. The luciferase expression was measured 6 h post-induction. […] Luciferase expression was expressed as relative light units (RLU).
Functional expression of LHRs on the cell surface results in the stimulation of PKA and an increase of intracellular cAMP in response to bLH. It was evaluated whether the activated LHR-signaling may induce a PKA-responsive promoter. […] 24 hours post-transfection the cells were induced by bLH and the SEAP expression was determined over time. […] In comparing rLHR- and bLHR-expressing cells a 3-fold increase in maximal SEAP expression in response to bLH of the rLHR over the bLHR was detected. […]
The intracellular cAMP production of cells was quantified using the cAMP Fluorescence Polarization (FP) Biotrak Immunoassay System (GE Healthcare Bio-Sciences GmbH, Otelfingen, Switzerland, Cat No. RPN3595) according to the manufacturer's protocol. The expression of firefly luciferase was determined with the Tropix Luciferase Assay Kit (Applied Biosystems, Bedford, USA, Cat No. BC100L). […] Enhanced YFP-expression was detected by fluorescence microscopy (Leica Microsystems, Wetzlar, Germany)

Test [2] concerns the target T1, rLHR. The experiment in a line: bLH-dependent disruption of CS/pDADMAC microcapsules containing CK04 cells transfected with pCK71. Type of test: cell-based. The following applies: 500 ng/ml bLH, 24 hours post-induction. Also noted: Full-length cDNAs encoding the LHRs of rat (r) and bovine (b) origin; expressed in transfected cells; host or cells: CK04: HEK293T stably cotransfected with pLEN-rLHR and pZeoSV2(+), clone 6. On the procedure:
(A) Phase-contrast photomicrographs of CS/pDADMAC encapsulated CK04 cells transiently transfected for PCRE controlled cellulase expression (pCK71, PCRE-cellulase-pA). The microcapsules were cultured in the absence or presence of 500 ng/ml bLH. In the presence of bLH the capsules were disrupted by the induced expression of cellulase whereas the non-induced capsules remained intact. Arrows indicate the disrupted capsules.
(B) Quantification of microcapsule disruption. Per sample approximately 150 capsules were counted and the amount of capsule disruption was calculated. 24 hours post-induction 98% of the capsules were disrupted by the induced cellulase. […]
Cells were encapsulated using the Inotech Encapsulator Research Unit IE-50R (Inotech Biotechnologies Ltd, Basel, Switzerland). […] The cells were counted using a Casy Counter (Scharfe Systems, Reutlingen, Germany) and 1×10^6 cells were resuspended in sodium […] sulfate solution (2% (w/v) in PBS, CS, Euroferm, Erlangen, Germany, Batch-No: FCY-06A) and aseptically encapsulated according to the standard protocol using the following settings: 0.2 mm nozzle with a nozzle vibration frequency of 1250 Hz, 20 ml syringe at a flow rate of 410 units, voltage for bead dispersion 1.15 kV. […]

“And” between values parts separate entries of the source, which are not always exact repeats. Identical values can stand only once.

T1 sequence (P16235 27-700): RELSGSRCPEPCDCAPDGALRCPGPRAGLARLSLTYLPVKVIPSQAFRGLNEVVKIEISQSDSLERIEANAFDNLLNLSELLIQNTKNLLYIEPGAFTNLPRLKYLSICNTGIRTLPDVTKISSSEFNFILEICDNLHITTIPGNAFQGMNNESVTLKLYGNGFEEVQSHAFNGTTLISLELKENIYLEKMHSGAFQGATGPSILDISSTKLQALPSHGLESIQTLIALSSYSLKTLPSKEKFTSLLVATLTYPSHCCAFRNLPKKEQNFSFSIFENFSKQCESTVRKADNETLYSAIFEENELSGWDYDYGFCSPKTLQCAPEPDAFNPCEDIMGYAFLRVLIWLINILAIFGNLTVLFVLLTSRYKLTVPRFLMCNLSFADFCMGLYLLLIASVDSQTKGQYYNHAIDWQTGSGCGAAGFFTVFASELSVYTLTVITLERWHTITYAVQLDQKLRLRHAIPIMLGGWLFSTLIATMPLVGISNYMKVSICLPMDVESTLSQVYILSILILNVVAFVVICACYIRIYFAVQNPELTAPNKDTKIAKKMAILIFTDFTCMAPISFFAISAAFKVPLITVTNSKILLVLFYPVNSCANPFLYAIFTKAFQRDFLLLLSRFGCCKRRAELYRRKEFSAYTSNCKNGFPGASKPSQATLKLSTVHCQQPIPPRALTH

In the case of bovine luteinizing hormone [bLH], the “increase in luciferase expression” value in test [1] was 10 fold and 9.9±0.1 fold. This substance also showed a disrupted capsules in test [2] of 98%.
